Test results reported in patent US20260248832A1, “COMPOSITION COMPRISING CYTIDINE ANALOGS AND USES AND METHODS THEREOF” (UNIVERSITÄT HEIDELBERG, priority 2022, published 2026).
In brackets after ≈: the same amount, converted by molar mass.

What was measured:
Assay type in all cases: physicochemical
[1] = Solubility of decitabine in different non-aqueous media; conditions: DMSO
Protocol: Due to the unsuitability of aqueous media, different non-aqueous media were tested with regard to the solubility of decitabine in the non-aqueous media. As decitabine is a nucleoside, several polar, water-free solvents, that would be well suited for further formulation experiments, were selected to determine the solubility of decitabine. […] Therefore, the DMSO stock was chosen as the next candidate for stability and formulation testing.

[2] = Long-term stability of decitabine in DMSO (HPLC); conditions: 3 mM stock in DMSO; room temperature and 2-8° C.; almost three months
Protocol: (§1) Chem Res Toxicol 2009; 22 (6): 1194-204.
(§2) • 1. […] Immediate Injection • 3. […] Chem Res Toxicol 2009; 22 (6): 1194-204.
A 3 mM stock solution of decitabine in DMSO was prepared and one aliquot each was stored at room temperature and at 2-8° C. Its β-decitabine concentration was determined by HPLC for almost three months.

[3] = Stability of decitabine in aqueous media (HPLC); conditions: DMSO stock mixed 1:2 with 20 mM ammonium acetate pH 6.8; room temperature (about 25° C.); up to 14 days
Protocol: as §1, §2
To test the stability of β-decitabine in an aqueous medium, two stock solutions of β-decitabine in DMSO were prepared and mixed 1:2 with the HPLC mobile phase (20 mM ammonium acetate pH 6.8). The samples were stored at room temperature (about 25° C.) and their content of β-decitabine, which is considered to represent the active anomer of decitabine, was measured for up to 14 days.

With `Nc1ncn([C@H]2C[C@H](O)[C@@H](CO)O2)c(=O)n1` [decitabine, 5-aza-2′-deoxycytidine] the solubility ([1]; organic solvent or mixture) was roughly 46 mg/mL (≈ 202 mM), the “solubility of decitabine for relevant dosage strengths” value ([1]; four tested solvents: glycerol, PEG 300, absolute ethanol) was “only DMSO showed sufficient solubility” and the “change in β-decitabine concentration in DMSO” value [2] was “almost no change”. The “stability of β-decitabine in aqueous medium” value [3] was “observed instability”.
